Data: ChEMBL document CHEMBL1201862, “PubChem BioAssay data set” (2004)
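Exposure lasted 48 hours, with cells grown in 96-well plates and compounds tested at five concentrations. At the GI50, growth is halved.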 Activity calls are given as the source filed them. No stated cut-off is given here; in the data, active = GI50 up to about 1.1 µM and inactive = higher.

Tests used:
Assay in all cases: DTP human tumour cell line panel, 48 h
[1] = tested on: ACHN
[2] = tested on: DLD-1
[3] = tested on: DMS-114
[4] = tested on: DMS-273
[5] = tested on: HCT-116
[6] = tested on: KM12
[7] = tested on: LXFL 529
[8] = tested on: NCI-H522
[9] = tested on: OVCAR-5
[10] = tested on: SF-295
[11] = tested on: SF-539
[12] = tested on: SK-MEL-2
[13] = tested on: SK-MEL-5
[14] = tested on: SNB-78
[15] = tested on: BT-549
[16] = tested on: MCF7
[17] = tested on: MDA-MB-231
[18] = tested on: MDA-MB-435
[19] = tested on: MDA-N

CCC(C)C(=O)c1c(O)c(C/C=C(\C)CCC=C(C)C)c(O)c2c(C(O)CC)cc(=O)oc12 (configuration not stated)
GI50 [1]: 2.2 µM (inactive)
GI50 [2]: 1.55 µM (inactive)
GI50 [3]: 498 nM (active)
GI50 [4]: 1.58 µM (inactive)
GI50 [5]: 867 nM (active)
GI50 [6]: 2.51 µM (inactive)
GI50 [7]: 1.16 µM (inactive)
GI50 [8]: 871 nM (active)
GI50 [9]: 5.28 µM (inactive)
GI50 [10]: 2.81 µM (inactive)
GI50 [11]: 1.67 µM (inactive)
GI50 [12]: 1.62 µM (inactive)
GI50 [13]: 1.19 µM (inactive)
GI50 [14]: 3.89 µM (inactive)

COC(=O)/C=c1\s/c(=C\C(=O)OC)c2ccccc12
GI50 [1]: > 100 µM (inactive)
GI50 [2]: 6.28 µM (inactive)
GI50 [3]: > 100000 nM (inactive)
GI50 [4]: 6.44 µM (inactive)
GI50 [5]: > 100000 nM (inactive)
GI50 [6]: 11.7 µM (inactive)
GI50 [7]: > 100 µM (inactive)
GI50 [8]: > 100000 nM (inactive)
GI50 [9]: > 100 µM (inactive)
GI50 [10]: > 100 µM (inactive)
GI50 [11]: > 100 µM (inactive)
GI50 [12]: > 100 µM (inactive)
GI50 [13]: > 100 µM (inactive)
GI50 [14]: > 100 µM (inactive)

C/C(=N\N=C(/S)N1CCCCCC1)c1cccc[n+]1[O-]
GI50 [1]: 4.58 µM (inactive)
GI50 [15]: 16 µM (inactive)
GI50 [2]: 0.0279 µM (active)
GI50 [3]: 19.8 nM (active)
GI50 [4]: 1.87 µM (inactive)
GI50 [5]: 433 nM (active)
GI50 [6]: 4.52 µM (inactive)
GI50 [7]: 0.348 µM (active)
GI50 [16]: 2.64 µM (inactive)
GI50 [17]: 7.59 µM (inactive)
GI50 [18]: 9.57 µM (inactive)
GI50 [19]: 6.47 µM (inactive)
GI50 [8]: 592 nM (active)
GI50 [9]: 21.4 µM (inactive)
GI50 [10]: 5.3 µM (inactive)
GI50 [11]: 4.54 µM (inactive)
GI50 [12]: 2.37 µM (inactive)
GI50 [13]: 2.22 µM (inactive)
GI50 [14]: 11 µM (inactive)
